In patent US10053458B2, “Pyrimidine-2,4-diamine derivative and anticancer pharmaceutical composition comprising same as effective ingredient” (KOREA RESEARCH INSTITUTE OF CHEMICAL TECHNOLOGY, priority 2014, dated 2018):

Tests used:
[1] = test system: BaF3 EML4-ALK WT cells; experiment: Cytotoxicity on BaF3 cell transfected with EML4-ALK WT (WST-1); conditions: Ba/F3 EML4-ALK, 72 h, read-out: BaF3 EML4-ALK WT, IC50 of the cytotoxicity
[2] = test system: H3122; experiment: Cancer cell proliferation inhibition (SRB/MTS), H3122; conditions: Homo sapiens, NCI-H3122, 72 h, read-out: H3122 GI50
Procedure: (§1) Cancer cell lines used in the experiments were all human-derived cancer cell lines, specifically H2228 and H3122, which are non-small cell lung cancer cell lines.
(§2) The cancer cell proliferation inhibition was measured using the MTS assay as follows. […] Each culture medium was placed in an incubator for 4 hours, taken out and left at room temperature for 10 minutes.

[3] = test system: H2228; experiment: Cancer cell proliferation inhibition (SRB/MTS), H2228; conditions: Homo sapiens, NCI-H2228, 72 h, read-out: H2228 GI50
Procedure: as §1, §2

COc1cc2c(cc1Nc1ncc(Cl)c(Nc3ccccc3S(=O)(=O)C(C)C)n1)C(C)(C)CN(C(=O)C(F)(F)F)C2 [Example 11, 1-(6-(5-chloro-4-(2-(isopropylsulfonyl)phenylamino)pyrimidin-2-yl)amino-7-methoxy-4,4-dimethyl-3,4-dihydroisoquinolin-2(1H)-yl)-2,2,2-trifluoroethane-1-one]
< 50 nM: IC50 [1] | GI50 [2] | GI50 [3]

COc1cc2c(cc1Nc1ncc(Cl)c(Nc3ccccc3S(=O)(=O)C(C)C)n1)CNCC21CC1 [Example 96, 5-chloro-N4-(2-(isopropylsulfonyl)phenyl)-N2-(6-methoxy-2,3-dihydro-1H-spiro(cyclopropane-1,4-isoquinolin)-7-yl)pyrimidine-2,4-diamine]
< 50 nM: IC50 [1] | GI50 [2] | GI50 [3]

COc1cc2c(cc1Nc1ncc(Cl)c(Nc3ccccc3S(=O)(=O)C(C)C)n1)C(C)(C)NCC2 [Example 72, 5-chloro-N4-(2-(isopropylsulfonyl)phenyl)-N2-(6-methoxy-1,1-dimethyl-1,2,3,4-tetrahydroisoquinolin-7-yl)pyrimidine-2,4-diamine]
< 50 nM: IC50 [1] | GI50 [2] | GI50 [3]

CCC(C)Oc1cc2c(cc1Nc1ncc(Cl)c(Nc3ccccc3S(=O)(=O)C(C)C)n1)CCN(C(=O)C(F)(F)F)C2 (stereo not drawn) [Example 21]
< 50 nM: IC50 [1] | GI50 [2] | GI50 [3]

COc1cc2c(cc1Nc1ncc(Cl)c(Nc3ccccc3S(=O)(=O)C(C)C)n1)CCNC2C(F)(F)F (stereo not drawn) [Example 26]
< 50 nM: IC50 [1] | GI50 [2] | GI50 [3]

CCCC1NCCc2cc(Nc3ncc(Cl)c(Nc4ccccc4S(=O)(=O)C(C)C)n3)c(OC)cc21 (stereo not drawn) [Example 102, 5-chloro-N4-(2-(isopropylsulfonyl)phenyl)-N2-(7-methoxy-1-propyl-1,2,3,4-tetrahydroisoquinolin-6-yl)pyrimidine-2,4-diamine]
< 50 nM: IC50 [1] | GI50 [2] | GI50 [3]

COc1cc2c(cc1Nc1ncc(Cl)c(Nc3ccccc3S(=O)(=O)C(C)C)n1)CCN(C(=O)CO)C2(C)C [Example 78, 1-6-(5-chloro-4-(2-(isopropylsulfonyl)phenylamino)pyrimidin-2-yl)amino-7-methoxy-1,1-dimethyl-3,4-dihydroisoquinolin-2(1H)-yl-2-hydroxyethane-1-one]
< 50 nM: IC50 [1] | GI50 [2] | GI50 [3]

CCN1Cc2cc(Nc3ncc(Cl)c(Nc4ccccc4S(=O)(=O)C(C)C)n3)c(OC)cc2C(C)(C)C1 [Example 92, 5-chloro-N4-(2-(isopropylsulfonyl)phenyl)-N2-(2-ethyl-6-methoxy-4,4-trimethyl-1,2,3,4-tetrahydroisoquinolin-7-yl)pyrimidine-2,4-diamine]
< 50 nM: IC50 [1] | GI50 [2] | GI50 [3]

COc1cc2c(cc1Nc1ncc(Cl)c(Nc3ccccc3S(=O)(=O)C(C)C)n1)C1CNCCN1CC2(C)C (stereo not drawn) [Example 86, 5-chloro-N4-(2-(isopropylsulfonyl)phenyl)-N2-(9-methoxy-7,7-dimethyl-1,3,4,6,7,11b-hexahydro-2H-pyrazino[2,1-a]isoquinolin-10-yl)pyrimidine-2,4-diamine]
< 50 nM: IC50 [1] | GI50 [2] | GI50 [3]

COc1cc2c(cc1Nc1ncc(Cl)c(Nc3ccccc3S(=O)(=O)C(C)C)n1)C(C)NCC2 (stereo not drawn) [Example 46]
< 50 nM: IC50 [1] | GI50 [2] | GI50 [3]
